Experimental data as given in patent US6103709A (priority 1998, dated 2000).
“Also recorded” adds a separate entry of the source.

Assays:
[1] = target: T1, nuclear receptor for 1α,25(OH)2 D3 [VDRnuc] (Gallus gallus, UniProt O42392); assay: Relative Competitive Index (steroid competition) assay, nuclear receptor VDRnuc; format: binding, chick; design: key to Nuclear 1α,25-D Receptor (RCI): % relative to 1α,25(OH)2D3 binding (RCI = 100%); details: for Binding to VDRnuc relative to 1α,25(OH)2 D3 (RCI): 1α,25(OH)2 D3 = 100%, FIG. 8: chick intestine mucosa; for Nuclear 1α,25-D Receptor (RCI): RCI of 1α,25(OH)2 D3 = 100
T1 construct: VDRnuc receptor preparation from chick intestine mucosa; from tissue; host or cells: chick intestinal mucosa
T1 sequence (O42392 1-451): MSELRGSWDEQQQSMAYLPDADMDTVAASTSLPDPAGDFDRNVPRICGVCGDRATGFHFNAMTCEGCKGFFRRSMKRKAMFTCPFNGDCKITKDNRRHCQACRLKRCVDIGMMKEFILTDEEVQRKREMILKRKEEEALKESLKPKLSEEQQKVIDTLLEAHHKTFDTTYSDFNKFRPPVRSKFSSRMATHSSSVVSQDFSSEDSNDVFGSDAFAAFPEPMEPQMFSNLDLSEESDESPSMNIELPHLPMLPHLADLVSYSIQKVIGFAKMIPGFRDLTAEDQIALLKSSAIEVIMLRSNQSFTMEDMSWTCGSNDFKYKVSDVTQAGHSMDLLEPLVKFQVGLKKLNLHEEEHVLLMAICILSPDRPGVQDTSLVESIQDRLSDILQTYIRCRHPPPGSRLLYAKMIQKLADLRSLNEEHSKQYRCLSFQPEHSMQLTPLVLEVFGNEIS
Procedure: The ability of analogs to mediate genomic responses are directly determined by the ability of the analog in question to bind to the nuclear receptor for 1α,25(OH)2 D3 [VDRnuc ]. This ability is detected by the assay measuring Relative Competitive Index (RCI).
The assay is based upon the principles of a steroid competition assay. A fixed amount of [^3 H]1α,25(OH)2 D3 is mixed with increasing amounts of competitive analogs or the natural hormone, 1α,25(OH)2 D3, and incubated with a VDRnuc receptor preparation from chick intestine mucosa.
Ligand Receptor Competition Assay
This example describes a ligand receptor competitive assay used for determination of an analog's relative ability to bind to VDRnuc expressed as relative competitive index (RCI).
The relative affinity of nonradioactive 1α,25(OH)2 D3 and each analog to compete with [^3 H]1α,25(OH)2 D3 for binding to the VDRnuc of NB4 cells was carried out in vitro. The NB4 cells were collected from a fast growing stage and the cellular VDRnuc of 1α,25(OH)2 D3 were extracted from KTED buffer containing 10 mM Tris-HCl, pH 7.4, 300 mM KCl, 1 mM EDTA and 5 mM DTT. After sonication, the cell extract was further centrifuged at 500× g for 10 min. The supernatant was collected for use in a ligand-receptor binding assay.
In this assay, increasing concentrations (10^-10 to 10^-6 M) of nonradioactive 1α,25(OH)2 D3 or the tested analogs were incubated with NB4 cell extracts in the presence of a fixed saturating amount of 1 pmole of [^3 H]1α,25(OH)2 D3. The reciprocal of the percentage of maximal binding of [^3 H]1α,25(OH)2 D3 was then calculated and plotted as a function of the relative analog concentration versus [^3 H]1α,25(OH)2 D3. […] The competitive index value for each analog is then normalized to the competitive index value of the […], thereby generating the value of Relative Competitive Index (RCI) where the RCI for 1α,25(OH)2 D3 is defined as 100%.
The full description of the assay is found in Methods in Enzymology: Vitamins and Co-Enzymes, Vol. 67, 494-500 , Academic Press, NY(1980); Biochem. Biophys. Res. Commun., 91: 827-834 (1979); and Endocrinology, 139(2): 457-465 (1998).

[2] = test system: intestinal Ca2+ transport in perfused chick duodena (transcaltachia); assay: Transcaltachia assay (rapid stimulation of 45Ca2+ transport in perfused duodena); details: for Rapid Trans-Caltachia, relative to 1α,25(OH)2 D3: 1α,25(OH)2 D3 = 100; for stimulation of transcaltachia (in words, FIG. 11): perfusion with 300 pM or 650 pM analog, reference 650 pM 1α,25(OH)2 D3, within first four minutes
Procedure: Duodenal loops from normal, vitamin D-replete chicks were lumenally perfused with ^45 Ca^2+ (5 uCi/ml of buffer). To establish basal transport rates, celiac artery of controls were perfused with control medium for the first 20 min. The duodena were then either re-exposed to control medium containing the vehicle ethanol (0.005%, final concentration) through the celiac artery, or vascularly perfused with 300 pM or 650 pM agonist analogs JM or JN or with 650 pM of a control reference compound 1α,25(OH)2 D3. The venous effluent was collected at 2 min intervals for liquid scintillation spectrophotometry of the ^45 Ca^2+. […] Values represent mean ±SEM for n=4 in each group.
The data shown in FIG. 13 are the mean ±SEM from 4-5 duodena. […] Open circles represent the negative control receiving no treatment with 1α,25(OH)2 D3 or analog. […] Data represent the ratio of treated to basal values ±SEM extracted from a time-course plot (as in panel A) at 32 minutes.
This example describes the assay used for testing rapid response transcaltachia described in J. Biol. Chem, 268: 13811-13819 (1993).
White Leghorn cockerels (Hyline International, Lakeview, Calif.) were obtained on the day of hatch and maintained on a vitamin D-supplemented diet (1.0% calcium and 1.0% phosphorus; O. H. Kruse Grain and Milling, Ontario, Calif.) for 5-6 weeks to prepare normal vitamin D3 -replete chicks for use in the transcaltachia studies.
Measurements of ^45 Ca^2+ transport were carried out in perfused chick duodena. Normal vitamin D-replete chicks weighing approximately 500 g were anesthetized with 0.3 ml per 100 g Chloropent (Fort Dodge, Iowa), and the duodenal loop was surgically exposed. The celiac vein and blood vessels branching off from the celiac artery were ligated before cannulation of the celiac artery itself, and vascular perfusion was immediately initiated. Both the celiac artery and vein of the duodena were perfused with modified Grey's balanced salt solution (GBSS) +0.9 mM Ca which was oxygenated with 95% O2 and 5% CO2. A basal transport rate was established by perfusion with control medium for 20 minutes after the intestinal lumen was filled with ^45 Ca^2+. The tissue was then exposed to 1α,25(OH)2 D3 or analogs or reexposed to control medium for an additional 40 minutes. The vascular perfusate was collected at 2 min intervals during the last 10 min of the basal and during the entire treatment period. Duplicate 100 μl aliquots were taken for determination of the ^45 Ca^2+ levels by liquid scintillation spectrometry.

| SMILES | Binding to VDRnuc relative to 1α,25(OH)2 D3 (RCI) [1] [%] | Nuclear 1α,25-D Receptor (RCI) [1] | also measured |
| --- | --- | --- | --- |
| C=C1/C(=C\C=C2/CCC[C@]3(C)[C@@H]([C@H](C)Cc4cccc(O)c4)CC[C@@H]23)C[C@@H](O)C[C@@H]1O [DE] | 29 | 29 | – |
| C=C1/C(=C\C=C2/CCC[C@]3(C)[C@@H]([C@H](C)Cc4ccc(O)cc4)CC[C@@H]23)C[C@@H](O)C[C@@H]1O [DF] | 5 | 5 | – |
| C=C1/C(=C\C=C2/CCC[C@]3(C)[C@@H]([C@H](C)Cc4cccc(C(C)(C)O)c4)CC[C@@H]23)C[C@@H](O)C[C@@H]1O [EV] | 62 | 62 | – |
| CC1=C(/C=C\C2=CCC[C@@]3(C)[C@@H]2CC[C@@H]3[C@H](C)CCCC(C)(C)O)C[C@@H](O)C[C@@H]1O [GF] | – | 2 | – |
| C=C1/C(=C\C=C2/CCC[C@]3(C)[C@@H]([C@H](C)CCCC(C)(C)O)CC[C@@H]23)C[C@@H](O)C[C@H]1O [HL] | – | – | transcaltachia caused by 1α,25(OH)2 D3 in presence of HL ([2]; HL 12 pM in combination with 1α,25(OH)2 D3 300 pM): particularly observable; inhibition of 1α,25(OH)2 D3-stimulated transcaltachia ([2]; HL 60 pM in advance of 300 pM 1α,25(OH)2 D3): clear inhibition of transcaltachia; inhibition of 1α,25(OH)2 D3-stimulated transcaltachia ([2]; HL 400 pM, 1α,25(OH)2 D3 300 pM): clearly inhibited; inhibition of 1α,25(OH)2 D3-stimulated transcaltachia ([2]; HL administered before 1α,25(OH)2 D3 / FIG. 13 overall): almost completely inhibited; also recorded: potent ability of 1β,25(OH)2 D3 (HL) to block or antagonize |
| C=C1/C(=C\C=C2/CCC[C@]3(C)[C@@H]([C@H](C)C=C=CC(C)(C)O)CC[C@@H]23)C[C@@H](O)C[C@@H]1O [HQ] | – | 21 | – |
| C=C1/C(=C\C=C2/CCC[C@]3(C)[C@@H]([C@H](C)C=C=CC(C)(C)O)CC[C@@H]23)C[C@@H](O)C[C@@H]1O [HR] | 52 | 52 | – |
| C[C@H](CCCC(C)(C)O)[C@H]1CC[C@H]2C3=CC=C4C[C@@H](O)C[C@H](O)[C@]4(C)[C@H]3CC[C@]12C [JM] | – | 0.1 | Rapid Trans-Caltachia, relative to 1α,25(OH)2 D3 [2]: 60%; stimulation of transcaltachia (in words, FIG. 11) [2]: comparable or better than the reference compound |
| C[C@H](CCCC(C)(C)O)[C@H]1CC[C@H]2C3=CC=C4C[C@@H](O)C[C@H](O)[C@@]4(C)[C@@H]3CC[C@]12C [JN] | – | 1.8 | Rapid Trans-Caltachia, relative to 1α,25(OH)2 D3 [2]: 105%; stimulation of transcaltachia (in words, FIG. 11) [2]: comparable or better than the reference compound |
| C[C@H](CCCC(C)(C)O)[C@H]1CC[C@H]2C3=CC=C4C[C@@H](O)C[C@H](O)[C@@]4(C)[C@H]3CC[C@]12C [JO] | – | 0.2 | Rapid Trans-Caltachia, relative to 1α,25(OH)2 D3 [2]: 50% |
| C[C@H](CCCC(C)(C)O)[C@H]1CC[C@H]2C3=CC=C4C[C@@H](O)C[C@H](O)[C@]4(C)[C@@H]3CC[C@]12C [JP] | – | 0.3 | Rapid Trans-Caltachia, relative to 1α,25(OH)2 D3 [2]: 60% |
| CC1=C(C=C=C2CCC[C@]3(C)[C@@H]([C@H](C)CCCC(C)(C)O)CC[C@@H]23)C[C@@H](O)C[C@@H]1O [JV] | – | 1.6 | – |
| CC1=C(C=C=C2CCC[C@]3(C)[C@@H]([C@H](C)CCCC(C)(C)O)CC[C@@H]23)C[C@@H](O)C[C@@H]1O [JW] | – | 2.6 | – |
| C=C1CC[C@H](O)C/C1=C/C=C1\CCC[C@]2(C)[C@@H]([C@H](C)Cc3ccc(O)cc3)CC[C@@H]12 [JX] | – | 0.002 | – |
| C=C1CC[C@H](O)C/C1=C/C=C1\CCC[C@]2(C)[C@@H]([C@H](C)Cc3cccc(O)c3)CC[C@@H]12 [JY] | – | 0.001 | – |
| C=C1/C(=C\C=C2/CCC[C@]3(C)[C@@H]([C@H](C)CCCC(C)(C)O)C[C@@H]4C[C@@]243)C[C@@H](O)C[C@@H]1O [LO] | 98 | 98 | VDRnuc binding / nuclear response (in words) ([1]; compared with 1α,25(OH)2 D3): as active in generating nuclear responses as is the 1α,25(OH)2 D3 |
